Usually IC50 stands for the midpoint of a concentration-inhibition curve.

Here are results for ten molecules from US20240376099A1, “COMPOUNDS AND COMPOSITIONS AS INHIBITORS OF ENDOSOMAL TOLL-LIKE RECEPTORS” (Novartis AG, priority 2016, published 2024).

This test concerns the target T1, TLR8 (Homo sapiens, UniProt Q9NR97).
T1 sequence (Q9NR97 27-1041): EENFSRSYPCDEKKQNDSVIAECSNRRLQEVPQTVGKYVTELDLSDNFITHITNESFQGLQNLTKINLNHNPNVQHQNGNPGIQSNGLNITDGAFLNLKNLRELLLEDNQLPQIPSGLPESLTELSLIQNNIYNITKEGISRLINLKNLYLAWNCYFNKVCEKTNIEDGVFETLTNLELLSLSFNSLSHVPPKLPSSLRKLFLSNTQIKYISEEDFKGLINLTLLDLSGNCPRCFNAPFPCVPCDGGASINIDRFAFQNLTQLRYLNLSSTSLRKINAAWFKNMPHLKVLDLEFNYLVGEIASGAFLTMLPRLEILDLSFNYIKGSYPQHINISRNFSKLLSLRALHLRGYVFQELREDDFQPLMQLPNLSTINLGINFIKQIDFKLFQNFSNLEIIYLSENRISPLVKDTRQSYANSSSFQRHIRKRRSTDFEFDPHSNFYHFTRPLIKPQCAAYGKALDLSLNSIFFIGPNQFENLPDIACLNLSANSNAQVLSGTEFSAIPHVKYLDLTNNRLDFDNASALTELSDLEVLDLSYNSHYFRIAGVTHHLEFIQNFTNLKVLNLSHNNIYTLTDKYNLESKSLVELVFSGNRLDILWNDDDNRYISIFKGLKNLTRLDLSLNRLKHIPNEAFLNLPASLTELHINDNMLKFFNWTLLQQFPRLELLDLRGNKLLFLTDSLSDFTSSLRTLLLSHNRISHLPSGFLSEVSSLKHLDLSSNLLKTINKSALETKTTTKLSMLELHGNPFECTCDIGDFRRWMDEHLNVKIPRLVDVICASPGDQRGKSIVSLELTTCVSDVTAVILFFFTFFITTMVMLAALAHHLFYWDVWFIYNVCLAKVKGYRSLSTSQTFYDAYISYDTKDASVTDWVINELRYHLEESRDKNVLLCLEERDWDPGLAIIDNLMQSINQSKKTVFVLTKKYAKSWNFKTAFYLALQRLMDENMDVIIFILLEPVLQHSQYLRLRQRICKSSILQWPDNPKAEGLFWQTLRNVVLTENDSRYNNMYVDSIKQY
Description: huPBMC TLR8 Antagonist IL-6 TR-FRET Assay. It counts as cell-based. Further details: Fresh blood was collected from normal human donors; endogenous in cells; host or cells: human PBMCs from fresh donor blood. Particulars: human PBMCs stimulated with ssRNA40 1 μg/ml (DOTAP), 14-16 hrs; IL-6 TR-FRET read-out. As for the experimental part:
Compounds were generally serially diluted (1/3) in DMSO and plated on sterile 384 well tissue culture plates and stored until ready for use. Each ten-point dilution was typically plated in triplicate in parallel rows.
Fresh blood was collected from normal human donors underwritten informed consent in heparinized syringes on the morning of the assay. The blood was diluted in RPMI-1640 medium and the white blood cells were separated from red blood cells by centrifugation (800 g 15′ 0 acceleration, 0 brake) on a Ficoll cushion. Peripheral blood mononuclear cells (PBMCs) were separated from platelets by a series of low-speed centrifugations (1000RPM 10′) in PBS+5% HI—FBS and 1 mM EDTA. Purified PBMCs were re-suspended in assay medium (RPMI-1640 w Glutamax (Invitrogen) supplemented with 5% HI—FBS, 10 mM HEPES, 50 uM β-mercaptoethanol, and 100 mG/L penicillin/streptomycin cocktail). Viable PBMCs were counted on a hemacytometer and kept on ice until ready for plating.
A 4× concentration (4 ug/ml or 40 ug/ml for TLR8 or TLR7 assays, respectively) of the TLR7/8 agonist ssRNA40 (IDT) was complexed with 10% DOTAP (Roche) in assay medium for 30 min prior to addition to the PBMC suspension (5 million cells/ml). After addition, the final concentration of ssRNA40 in the TLR7/8 stimulated PBMC suspension was 1 μg/ml for TLR8 assay, and 10 μg/mL for the TLR7 assay. The final DOTAP concentration was 2.5%. Diluted PBMCs (5 million cells/ml) were treated with 4×TLR9 agonist ODN2216 (Invivogen). Final concentration of ODN2216 in TLR9 stimulated PBMC suspension was 0.3 μM.
Agonist stimulated PBMCs were plated on the compound treated 384 well plates at 150,000 cells/well. Un-stimulated PBMCs were plated as controls on each plate. Plating volume was 40 μL per well. DMSO concentration in each well was 0.25%.
A separate plate, without compounds, with titrations of ssRNA40 and ODN2216 was included in every assay to measure agonist response of each donor's PBMC prep. Assay plates were placed in a tissue culture incubator (37° C., 5% CO2) for 14-16 hrs. After this incubation, the plates were centrifuged and stored at −20° C. until they were assayed.
IL-6 TR-FRET Assay for TLR8 activity: • 1) Cisbio Human IL-6 kit, 20,000 tests (62TNFPEC), and GNF High-Base TC 384 well plates (cat #789163G) were used; • 2) the Anti-TIL-6 Cryptate conjugate and the Anti-IL-6 XL665 conjugate were diluted 1:20 in Reconstitution Buffer; • 3) a 1:1 mixture of 3 μl/well Anti-IL-6 Cryptate conjugate and 3 μl/well Anti-IL-6 XL665 conjugate was prepared; • 4) 6 μl/well HTRF dilution mastermix was added to 6 μl of transferred supernatant samples in proxiplates; • 5) The plates were incubated for 3 hrs at rt in the dark; and • 6) the levels of IL-6 production was measured using an Envision plate reader (665 nm (emmission)/590 nm (excitation)) with HTRF settings and ratiometric read-out: (XL665 emission/Eu Cryptate emission)×10,000. IFNα2b AlphaLISA Assay for TLR7 or TLR9 activity After thawing the assay plates, 6 μL of supernatant samples were transferred to a low-volume AlphaPlate 384SW (Perkin-Elmer). The concentration of IFNα in supernatants was measured using the IFNα2b AlphaLISA Assay (Perkin-Elmer: AL297F). 3 μL of IFNα acceptor beads/biotinylated antibody solution was added first, using laboratory automation. After an hour incubation, […] of streptavidin […] bead solution was added. The plates containing this mixture were incubated in the dark for an hour and read on an appropriate plate reader at reading parameters set by the manufacturer. (Envision, EnSpire: Perkin-Elmer).
Background: TR-FRET usually uses a lanthanide donor and a delayed reading to cut background.
With `Cc1nc(N2CCc3c(c(C)nn3CC34CCC(N)(CC3)CC4)C2)c2cc[nH]c2n1` [Compound No. 4, 4-((3-methyl-5-(2-methyl-7H-pyrrolo[2,3-d]pyrimidin-4-yl)-4,5,6,7-tetrahydro-1H-pyrazolo[4,3-c]pyridin-1-yl)methyl)bicyclo[2.2.2]octan-1-amine], the IC50 came out at 511 nM.
For `Cc1cc(N2CCc3c(c(C)nn3CC34CCC(NC(=O)CN(C)C)(CC3)CC4)C2)c2cnn(C)c2n1` [Compound No. 7, N-(4-((5-(1,6-dimethyl-1H-pyrazolo[3,4-b]pyridin-4-yl)-3-methyl-4,5,6,7-tetrahydro-1H-pyrazolo[4,3-c]pyridin-1-yl)methyl)bicyclo[2.2.2]octan-1-yl)-2-(dimethylamino)acetamide], the 50% inhibitory concentration (IC50) stood at 61 nM.
As for `COCCN(CCOC)C12CCC(Cn3nc(C)c4c3CCN(c3cc(C)nc5c3cnn5C)C4)(CC1)CC2` [Compound No. 70, 4-((5-(1,6-dimethyl-1H-pyrazolo[3,4-b]pyridin-4-yl)-3-methyl-4,5,6,7-tetrahydro-1H-pyrazolo[4,3-c]pyridin-1-yl)methyl)-N,N-bis(2-methoxyethyl)bicyclo[2.2.2]octan-1-amine], the IC50 stood at 379 nM.
For `COCCN(C)C12CCC(Cn3nc(C)c4c3CCN(c3cc(C)nc5c3cnn5C)C4)(CC1)CC2` [Compound No. 73, 4-((5-(1,6-dimethyl-1H-pyrazolo[3,4-b]pyridin-4-yl)-3-methyl-4,5,6,7-tetrahydro-1H-pyrazolo[4,3-c]pyridin-1-yl)methyl)-N-(2-methoxyethyl)-N-methylbicyclo[2.2.2]octan-1-amine] the value was 139 nM; for `Cc1cc(N2CCc3c(c(C)nn3CC34CCC(NCC(=O)N(C)C)(CC3)CC4)C2)c2cnn(C)c2n1` [Compound No. 76, 2-((4-((5-(1,6-dimethyl-1H-pyrazolo[3,4-b]pyridin-4-yl)-3-methyl-4,5,6,7-tetrahydro-1H-pyrazolo[4,3-c]pyridin-1-yl)methyl)bicyclo[2.2.2]octan-1-yl)amino)-N,N-dimethylacetamide], 201 nM; for `Cc1nn(CC23CCC(N)(CC2)CC3)c2c1CN(c1nc(-c3ccc(F)cc3)nc3c1cnn3C)CC2` [Compound No. 83, 4-((5-(6-(4-fluorophenyl)-1-methyl-1H-pyrazolo[3,4-d]pyrimidin-4-yl)-3-methyl-4,5,6,7-tetrahydro-1H-pyrazolo[4,3-c]pyridin-1-yl)methyl)bicyclo[2.2.2]octan-1-amine], 865 nM.
For `Cc1cc(N2CCc3c(c(C)nn3CC34CCC(N)(CC3)CC4)C2)c2ccccc2n1` [compound 62, -((3-methyl-5-(2-methylquinolin-4-yl)-4,5,6,7-tetrahydro-1H-pyrazolo[4,3-c]pyridin-1-yl)methyl)bicyclo[2.2.2]octan-1-amine], the concentration for half-maximal inhibition (IC50) is 699 nM.
For `Cc1cc(N2Cc3cn(CC45CCC(N)(CC4)CC5)nc3C(C)(C)C2)c2cnn(C)c2n1` [compound 65, 4-((5-(1,6-dimethyl-1H-pyrazolo[3,4-b]pyridin-4-yl)-7,7-dimethyl-4,5,6,7-tetrahydro-2H-pyrazolo[4,3-c]pyridin-2-yl)methyl)bicyclo[2.2.2]octan-1-amine] the value was 2360 nM.
Consider `Cc1cc(N2CCc3c(c(C)nn3CC34CCC(N5CCS(=O)(=O)CC5)(CC3)CC4)C2)c2cnn(C)c2n1` [compound 66, 4-(4-((5-(1,6-dimethyl-1H-pyrazolo[3,4-b]pyridin-4-yl)-3-methyl-4,5,6,7-tetrahydro-1H-pyrazolo[4,3-c]pyridin-1-yl)methyl)bicyclo[2.2.2]octan-1-yl)thiomorpholine 1,1-dioxide], for which the 50% inhibitory concentration (IC50) amounted to 1130 nM.
For `Cc1cc(N2CCc3c(c(C)nn3CC34CCC(N5CC(O)C5)(CC3)CC4)C2)c2cnn(C)c2n1` [compound 68, 1-(4-((5-(1,6-dimethyl-1H-pyrazolo[3,4-b]pyridin-4-yl)-3-methyl-4,5,6,7-tetrahydro-1H-pyrazolo[4,3-c]pyridin-1-yl)methyl)bicyclo[2.2.]octan-1-yl)azetidin-3-ol] the value was 155 nM.
